Laboratory results reported in patent US20240269139A1, “COMPOUNDS FOR TARGETED PROTEIN DEGRADATION OF KINASES” (DANA-FARBER CANCER INSTITUTE, INC., priority 2020, published 2024).
Read-outs that look alike come from different tables or passages of the source.

How the values were obtained:
Assay type in all cases: cell-based
[1] = target: protein kinases (human kinome) (Homo sapiens, UniProt Q16584)
[2] = target: protein kinases (human kinome) (Homo sapiens, UniProt Q9HBH9); conditions: for logFC MKNK2 (Q9HBH9-1): direction down; for logFC: MKNK2 (Q9HBH9-1)
[3] = target: protein kinases (human kinome) (Homo sapiens, UniProt P53667); conditions: LIMK1 (P53667-1)
[4] = target: protein kinases (human kinome) (Homo sapiens, UniProt P07947); conditions: YES1 (P07947), experiment wp172
[5] = target: protein kinases (human kinome) (Homo sapiens, UniProt Q00535); conditions: for logFC of CDK5: Accession Q00535
[6] = target: protein kinases (human kinome) (Homo sapiens, UniProt Q8NI60); conditions: experiment wp056
[7] = experiment wp146, direction of change down

Chain of protein kinases (human kinome) (Homo sapiens, UniProt Q00535) (Q00535 whole entry): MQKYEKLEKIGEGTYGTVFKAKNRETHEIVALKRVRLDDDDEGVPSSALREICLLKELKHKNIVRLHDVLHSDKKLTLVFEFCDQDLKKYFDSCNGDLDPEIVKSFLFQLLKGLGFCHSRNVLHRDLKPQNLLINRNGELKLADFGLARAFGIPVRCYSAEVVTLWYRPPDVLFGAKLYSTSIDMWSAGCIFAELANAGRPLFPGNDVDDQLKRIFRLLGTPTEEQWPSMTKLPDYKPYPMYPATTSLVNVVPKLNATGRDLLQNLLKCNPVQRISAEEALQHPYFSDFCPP
Chain of protein kinases (human kinome) (Homo sapiens, UniProt P53667) (P53667 whole entry): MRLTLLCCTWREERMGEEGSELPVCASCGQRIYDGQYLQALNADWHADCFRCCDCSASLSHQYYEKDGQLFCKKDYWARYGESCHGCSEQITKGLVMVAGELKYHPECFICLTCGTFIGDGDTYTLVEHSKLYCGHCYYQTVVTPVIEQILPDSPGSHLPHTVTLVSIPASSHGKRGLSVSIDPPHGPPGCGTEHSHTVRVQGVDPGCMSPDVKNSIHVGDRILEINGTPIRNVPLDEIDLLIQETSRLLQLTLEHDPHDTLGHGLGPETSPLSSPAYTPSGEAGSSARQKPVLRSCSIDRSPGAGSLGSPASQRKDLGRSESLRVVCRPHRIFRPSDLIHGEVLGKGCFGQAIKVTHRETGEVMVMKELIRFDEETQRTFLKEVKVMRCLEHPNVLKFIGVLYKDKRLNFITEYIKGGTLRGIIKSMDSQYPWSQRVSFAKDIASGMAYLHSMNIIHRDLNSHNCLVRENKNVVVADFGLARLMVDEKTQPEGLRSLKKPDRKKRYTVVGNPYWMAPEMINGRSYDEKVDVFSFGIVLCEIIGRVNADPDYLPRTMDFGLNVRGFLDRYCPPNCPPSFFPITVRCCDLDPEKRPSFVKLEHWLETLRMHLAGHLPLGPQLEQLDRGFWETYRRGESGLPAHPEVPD
Chain of protein kinases (human kinome) (Homo sapiens, UniProt Q9HBH9) (Q9HBH9 whole entry): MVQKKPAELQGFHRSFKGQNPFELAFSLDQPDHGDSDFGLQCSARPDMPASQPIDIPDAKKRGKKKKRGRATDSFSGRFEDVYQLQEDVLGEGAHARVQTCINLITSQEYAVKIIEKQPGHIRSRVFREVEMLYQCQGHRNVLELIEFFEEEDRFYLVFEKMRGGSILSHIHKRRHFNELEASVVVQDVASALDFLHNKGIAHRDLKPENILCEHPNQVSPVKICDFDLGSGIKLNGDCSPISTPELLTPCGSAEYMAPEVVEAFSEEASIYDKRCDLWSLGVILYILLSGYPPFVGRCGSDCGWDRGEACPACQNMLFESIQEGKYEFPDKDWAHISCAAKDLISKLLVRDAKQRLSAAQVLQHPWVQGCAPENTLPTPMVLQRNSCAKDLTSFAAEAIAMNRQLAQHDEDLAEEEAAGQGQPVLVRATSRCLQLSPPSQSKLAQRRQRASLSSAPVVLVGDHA
Chain of protein kinases (human kinome) (Homo sapiens, UniProt Q16584) (Q16584 whole entry): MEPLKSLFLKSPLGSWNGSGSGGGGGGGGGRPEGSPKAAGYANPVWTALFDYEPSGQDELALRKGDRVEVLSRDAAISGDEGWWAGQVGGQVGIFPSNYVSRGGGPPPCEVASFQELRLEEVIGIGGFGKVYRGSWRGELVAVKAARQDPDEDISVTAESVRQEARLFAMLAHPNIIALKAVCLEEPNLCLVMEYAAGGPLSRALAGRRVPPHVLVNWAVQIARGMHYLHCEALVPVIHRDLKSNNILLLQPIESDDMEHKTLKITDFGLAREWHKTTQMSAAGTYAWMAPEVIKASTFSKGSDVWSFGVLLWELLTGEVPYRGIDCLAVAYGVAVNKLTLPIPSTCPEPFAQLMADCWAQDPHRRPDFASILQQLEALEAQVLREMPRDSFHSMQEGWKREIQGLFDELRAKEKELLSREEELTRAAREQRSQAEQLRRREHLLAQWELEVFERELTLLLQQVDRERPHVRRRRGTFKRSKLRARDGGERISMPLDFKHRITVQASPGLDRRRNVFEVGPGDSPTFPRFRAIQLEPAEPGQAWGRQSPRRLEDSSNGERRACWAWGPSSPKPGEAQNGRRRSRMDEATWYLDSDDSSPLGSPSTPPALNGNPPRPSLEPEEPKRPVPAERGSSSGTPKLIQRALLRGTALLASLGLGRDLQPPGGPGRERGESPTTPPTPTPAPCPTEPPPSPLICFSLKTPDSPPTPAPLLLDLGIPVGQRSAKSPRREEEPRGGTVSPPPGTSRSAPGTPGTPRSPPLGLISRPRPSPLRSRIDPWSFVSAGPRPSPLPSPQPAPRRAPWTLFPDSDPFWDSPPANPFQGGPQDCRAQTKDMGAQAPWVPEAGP
Chain of protein kinases (human kinome) (Homo sapiens, UniProt P07947) (P07947 whole entry): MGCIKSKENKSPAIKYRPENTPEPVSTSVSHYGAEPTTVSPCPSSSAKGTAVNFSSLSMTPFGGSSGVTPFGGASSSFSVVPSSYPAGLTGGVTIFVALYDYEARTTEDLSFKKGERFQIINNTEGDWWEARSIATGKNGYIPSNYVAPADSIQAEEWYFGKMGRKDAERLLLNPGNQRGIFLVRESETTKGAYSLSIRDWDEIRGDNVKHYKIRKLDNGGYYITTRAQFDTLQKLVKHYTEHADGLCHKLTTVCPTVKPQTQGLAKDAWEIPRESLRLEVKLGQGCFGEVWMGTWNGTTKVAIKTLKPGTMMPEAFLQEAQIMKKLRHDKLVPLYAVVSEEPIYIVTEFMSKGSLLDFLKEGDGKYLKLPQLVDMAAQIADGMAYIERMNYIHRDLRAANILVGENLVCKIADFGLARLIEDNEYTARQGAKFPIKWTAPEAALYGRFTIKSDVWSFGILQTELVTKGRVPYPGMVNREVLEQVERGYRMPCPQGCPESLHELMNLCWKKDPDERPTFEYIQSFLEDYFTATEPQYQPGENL
Chain of protein kinases (human kinome) (Homo sapiens, UniProt Q8NI60) (Q8NI60 163-647): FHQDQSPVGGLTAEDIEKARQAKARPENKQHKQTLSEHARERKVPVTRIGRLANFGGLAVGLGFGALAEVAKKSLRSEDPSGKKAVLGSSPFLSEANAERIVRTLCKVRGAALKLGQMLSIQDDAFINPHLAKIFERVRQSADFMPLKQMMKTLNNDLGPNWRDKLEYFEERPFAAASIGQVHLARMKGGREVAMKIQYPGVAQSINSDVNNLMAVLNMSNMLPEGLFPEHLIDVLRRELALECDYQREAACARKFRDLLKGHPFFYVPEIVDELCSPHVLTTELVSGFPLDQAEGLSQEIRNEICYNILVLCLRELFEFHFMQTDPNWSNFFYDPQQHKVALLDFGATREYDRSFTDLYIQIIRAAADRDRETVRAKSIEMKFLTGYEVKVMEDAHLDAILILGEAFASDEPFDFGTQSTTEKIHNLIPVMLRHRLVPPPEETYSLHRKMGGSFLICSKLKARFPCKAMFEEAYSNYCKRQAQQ

CS(=O)(=O)Nc1cccc(-c2csc3cnc(Nc4ccc(N5CCN(CCCCCOc6cccc7c6C(=O)N(C6CCC(=O)NC6=O)C7=O)CC5)cc4)nc23)c1 (centres unmarked) [DB0614, N-(3-(2-((4-(4-(5-((2-(2,6-Dioxopiperidin-3-yl)-1,3-dioxoisoindolin-4-yl)oxy)pentyl)piperazin-1-yl)phenyl)amino)thieno[3,2-d]pyrimidin-7-yl)phenyl)methanesulfonamide]
logFC MAP3K11 (Q16584) ([1]; experiment wp117): −0.7291

Cc1ccc(NC(=O)c2cccc(C(F)(F)F)c2)cc1N1Cc2cnc(Nc3ccc(N4CCN(CCCCCCOc5cccc6c5C(=O)N(C5CCC(=O)NC5=O)C6=O)CC4)nc3)nc2N(C)C1=O (centres unmarked) [DB0663]
logFC MKNK2 (Q9HBH9-1) ([2]; Experiment wp045): −0.4798
logFC ([2]; experiment wp045): −0.4798

Cc1ccc(NC(=O)c2cccc(C(F)(F)F)c2)cc1N1Cc2cnc(Nc3ccc(N4CCN(CCCCC(=O)N[C@H](C(=O)N5C[C@H](O)C[C@H]5C(=O)N[C@@H](C)c5ccc(-c6scnc6C)cc5)C(C)(C)C)CC4)nc3)nc2N(C)C1=O [DB1113]
logFC LIMK1 ([3]; direction down, experiment wp168): −1.144
logFC LIMK1 ([3]; experiment wp168, down): −1.144

Cc1ncsc1-c1ccc([C@H](C)NC(=O)[C@@H]2C[C@@H](O)CN2C(=O)[C@@H](NC(=O)CCCCCN2CCN(c3ccc(Nc4ncc5scc(-c6cccc(NS(C)(=O)=O)c6)c5n4)cc3)CC2)C(C)(C)C)cc1 [RSS0680, (2S,4R)-1-((S)-3,3-Dimethyl-2-(6-(4-(4-((7-(3-(methylsulfonamido)phenyl)thieno[3,2-d]pyrimidin-2-yl)amino)phenyl)piperazin-1-yl)hexanamido)butanoyl)-4-hydroxy-N—((S)-1-(4-(4-methylthiazol-5yl)phenyl)ethyl)pyrrolidine-2-carboxamide]
logFC MKNK2 (Q9HBH9-1) ([2]; Experiment wp080): −0.4987
logFC MKNK2 (Q9HBH9-1) ([2]; Experiment wp117): −0.5075
logFC ([2]; experiment wp080): −0.4987
logFC ([2]; experiment wp117): −0.5075

Nc1ncnc2c1c(-c1ccc(Oc3ccccc3)cc1)nn2[C@H]1CC[C@H](N2CCN(CCOCCNC(=O)CNc3cccc4c3C(=O)N(C3CCC(=O)NC3=O)C4=O)CC2)CC1 (some centres unmarked) [SB1.G.181]
logFC LIMK1 ([3]; direction down, experiment wp071): −0.686
logFC LIMK1 ([3]; experiment wp071, down): −0.686

Cc1ccc(C(=O)Nc2ccc(CN3CCN(CCCOCCOCCOCCNC(=O)COc4cccc5c4C(=O)N(C4CCC(=O)NC4=O)C5=O)CC3)c(C(F)(F)F)c2)cc1C#Cc1cnc2cccnn12 (centres unmarked) [SB1.G.187]
logFC [4]: −0.5324
logFC ([4]; direction down): −0.5324
logFC of CDK5 ([5]; experiment wp056): −0.4804
logFC of CDK5 ([5]; experiment wp103): −0.5924
logFC of CDK5 ([5]; experiment wp105): −0.6053
logFC CDK5 (Q00535) ([5]; Experiment wp105, direction of change down): −0.6053
logFC CDK5 (Q00535) ([5]; Experiment wp107): −0.6778
logFC CDK5 (Q00535) ([5]; Experiment wp172): −0.8938
logFC CDK5 (Q00535) ([5]; experiment wp056, direction of change down): −0.4804
logFC CDK5 (Q00535) ([5]; experiment wp103, direction of change down): −0.5924
logFC CDK5 (Q00535) ([5]; experiment wp107, direction of change down): −0.6778
logFC CDK5 (Q00535) ([5]; experiment wp172, direction of change down): −0.8938
logFC COQ8A (Q8N160-1) [6]: −0.3885
logFC COQ8A (Q8NI60-1) [6]: −0.3885

CC(C)S(=O)(=O)c1ccccc1Nc1nc(Nc2ccc(N3CCN(CCOCCNC(=O)CNc4ccc5c(c4)C(=O)N(C4CCC(=O)NC4=O)C5=O)CC3)cc2)ncc1Cl (centres unmarked) [SK.3.93]
logFC of CDK5 ([5]; experiment wp016): −0.9703
logFC CDK5 (Q00535) ([5]; experiment wp016, direction of change down): −0.9703

Cc1ccc(C(=O)Nc2ccc(CN3CCN(CCOCCOCCNC(=O)CNc4cccc5c4C(=O)N(C4CCC(=O)NC4=O)C5=O)CC3)c(C(F)(F)F)c2)cc1C#Cc1cnc2cccnn12 (centres unmarked) [TL13.150]
logFC of CDK5 ([5]; experiment wp081): −0.3786
logFC CDK5 (Q00535) ([5]; experiment wp081, direction of change down): −0.3786

NC(=O)c1c(F)cccc1Nc1nc(Nc2ccc(S(=O)(=O)NCCOCCOCCOCCOCCNc3cccc4c3C(=O)N(C3CCC(=O)NC3=O)C4=O)cc2)ncc1Br (centres unmarked) [TMX.02.138]
logFC CDK5 (Q00535) ([5]; experiment wp146): −3.29
logFC CDK5 (Q00535) [5, 7]: −3.29
logFC MAP3K11 (Q16584) ([1]; experiment wp146): −0.9241

Cc1cc(Nc2ncc(Br)c(Nc3cccc(F)c3C(N)=O)n2)ccc1S(=O)(=O)NCCOCCOCCOCCOCCNc1cccc2c1C(=O)N(C1CCC(=O)NC1=O)C2=O (centres unmarked) [TMX.02.174]
logFC CDK5 (Q00535) ([5]; experiment wp146): −3.161
logFC CDK5 (Q00535) [5, 7]: −3.161
logFC MAP3K11 (Q16584) ([1]; experiment wp146): −1.874
